Measurements reported in the kinase profiling compilation of Christmann-Franck et al. (2016).
Where “and” joins values, the source holds several entries; their conditions need not be identical. Equal entries are not always repeated.

Experiments:
Assay in all cases: radiometric filter-binding kinase assay, Kinase HotSpot
Details in all cases: compound 0.5 µM; ATP 10 µM
[1] = biological target: TYRO3 (human) (UniProt Q06418)
[2] = biological target: RPS6KB2 (human) (UniProt Q9UBS0)
[3] = biological target: MAP4K2 (human) (UniProt Q12851)
[4] = biological target: CAMK1D (human) (UniProt Q8IU85)
[5] = biological target: ABL1 (human) (UniProt P00519)
[6] = biological target: PKN2 (human) (UniProt Q16513)
[7] = biological target: TNK2 (human) (UniProt Q07912)
[8] = biological target: PRKG1 (human) (UniProt Q13976)
[9] = biological target: PRKCB2 (human) (UniProt P05771)
[10] = biological target: PIM2 (human) (UniProt Q9P1W9)
[11] = biological target: MAP3K11 (human) (UniProt Q16584)
[12] = biological target: MAP4K5 (human) (UniProt Q9Y4K4)
[13] = biological target: STK4 (human) (UniProt Q13043)
[14] = biological target: PRKCA (human) (UniProt P17252)
[15] = biological target: TEK (human) (UniProt Q02763)
[16] = biological target: MAP3K14 (human) (UniProt Q99558)
[17] = biological target: PRKD1 (human) (UniProt Q15139)
[18] = biological target: CDK6 CCND3 (human) (UniProt P30281+Q00534)
[19] = biological target: RPS6KA4 KD2 (human) (UniProt O75676)
[20] = biological target: MAP3K9 (human) (UniProt P80192)
[21] = biological target: MARK4 (human) (UniProt Q96L34)
[22] = biological target: EPHB2 (human) (UniProt P29323)
[23] = biological target: EPHA5 (human) (UniProt P54756)
[24] = biological target: CDK5 CDK5R1 p35 (human) (UniProt Q00535+Q15078)
[25] = biological target: MAP3K3 (human) (UniProt Q99759)
[26] = biological target: CLK3 (human) (UniProt P49761)
[27] = biological target: SLK (human) (UniProt Q9H2G2)
[28] = biological target: MAP3K10 (human) (UniProt Q02779)
[29] = biological target: WNK3 (human) (UniProt Q9BYP7)
[30] = biological target: ACVRL1 (human) (UniProt P37023)
[31] = biological target: IGF1R (human) (UniProt P08069)
[32] = biological target: PDGFRA (human) (UniProt P16234)
[33] = biological target: MAPKAPK3 (human) (UniProt Q16644)
[34] = biological target: STK39 (human) (UniProt Q9UEW8)
[35] = biological target: SRPK1 (human) (UniProt Q96SB4)
[36] = biological target: CSNK1G3 (human) (UniProt Q9Y6M4)
[37] = biological target: PLK2 (human) (UniProt Q9NYY3)
[38] = biological target: LYN (human) (UniProt P07948)
[39] = biological target: HCK (human) (UniProt P08631)
[40] = biological target: JAK1 JH1 catalytic (human) (UniProt P23458)
[41] = biological target: AURKB (human) (UniProt Q96GD4)
[42] = biological target: EGFR (human) (UniProt P00533)

LYN (human), sequence (P07948 whole entry, looked up): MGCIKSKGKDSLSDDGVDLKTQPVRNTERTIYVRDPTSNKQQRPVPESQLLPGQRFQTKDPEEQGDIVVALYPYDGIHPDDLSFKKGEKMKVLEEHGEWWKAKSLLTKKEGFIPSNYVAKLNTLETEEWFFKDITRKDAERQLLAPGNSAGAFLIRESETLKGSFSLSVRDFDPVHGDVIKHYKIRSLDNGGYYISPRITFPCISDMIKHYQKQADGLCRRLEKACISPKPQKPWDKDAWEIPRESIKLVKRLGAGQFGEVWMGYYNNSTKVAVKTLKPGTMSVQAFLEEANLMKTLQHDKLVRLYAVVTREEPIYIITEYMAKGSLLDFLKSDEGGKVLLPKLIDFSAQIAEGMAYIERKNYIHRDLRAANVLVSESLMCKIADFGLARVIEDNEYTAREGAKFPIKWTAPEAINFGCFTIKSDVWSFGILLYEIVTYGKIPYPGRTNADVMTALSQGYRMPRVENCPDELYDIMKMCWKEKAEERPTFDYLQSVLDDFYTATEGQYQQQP
PRKG1 (human), sequence (Q13976 whole entry, looked up): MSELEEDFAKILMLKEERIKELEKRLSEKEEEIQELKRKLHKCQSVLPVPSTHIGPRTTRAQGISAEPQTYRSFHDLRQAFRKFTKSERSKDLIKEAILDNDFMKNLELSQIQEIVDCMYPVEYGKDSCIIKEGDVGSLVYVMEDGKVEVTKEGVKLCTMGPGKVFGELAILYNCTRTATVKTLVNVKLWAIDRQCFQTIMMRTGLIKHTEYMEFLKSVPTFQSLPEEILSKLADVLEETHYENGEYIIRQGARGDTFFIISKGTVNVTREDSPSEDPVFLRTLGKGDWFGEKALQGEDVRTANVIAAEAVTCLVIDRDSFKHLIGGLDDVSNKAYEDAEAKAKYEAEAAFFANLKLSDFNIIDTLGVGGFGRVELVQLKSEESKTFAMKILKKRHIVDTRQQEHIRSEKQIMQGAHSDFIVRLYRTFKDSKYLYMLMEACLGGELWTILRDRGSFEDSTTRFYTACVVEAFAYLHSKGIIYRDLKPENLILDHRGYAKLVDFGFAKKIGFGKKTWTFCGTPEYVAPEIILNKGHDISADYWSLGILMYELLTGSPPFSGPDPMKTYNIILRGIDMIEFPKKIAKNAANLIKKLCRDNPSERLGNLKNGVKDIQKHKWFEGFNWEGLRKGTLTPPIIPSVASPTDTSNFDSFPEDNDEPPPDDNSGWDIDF
PDGFRA (human), sequence (P16234 whole entry, looked up): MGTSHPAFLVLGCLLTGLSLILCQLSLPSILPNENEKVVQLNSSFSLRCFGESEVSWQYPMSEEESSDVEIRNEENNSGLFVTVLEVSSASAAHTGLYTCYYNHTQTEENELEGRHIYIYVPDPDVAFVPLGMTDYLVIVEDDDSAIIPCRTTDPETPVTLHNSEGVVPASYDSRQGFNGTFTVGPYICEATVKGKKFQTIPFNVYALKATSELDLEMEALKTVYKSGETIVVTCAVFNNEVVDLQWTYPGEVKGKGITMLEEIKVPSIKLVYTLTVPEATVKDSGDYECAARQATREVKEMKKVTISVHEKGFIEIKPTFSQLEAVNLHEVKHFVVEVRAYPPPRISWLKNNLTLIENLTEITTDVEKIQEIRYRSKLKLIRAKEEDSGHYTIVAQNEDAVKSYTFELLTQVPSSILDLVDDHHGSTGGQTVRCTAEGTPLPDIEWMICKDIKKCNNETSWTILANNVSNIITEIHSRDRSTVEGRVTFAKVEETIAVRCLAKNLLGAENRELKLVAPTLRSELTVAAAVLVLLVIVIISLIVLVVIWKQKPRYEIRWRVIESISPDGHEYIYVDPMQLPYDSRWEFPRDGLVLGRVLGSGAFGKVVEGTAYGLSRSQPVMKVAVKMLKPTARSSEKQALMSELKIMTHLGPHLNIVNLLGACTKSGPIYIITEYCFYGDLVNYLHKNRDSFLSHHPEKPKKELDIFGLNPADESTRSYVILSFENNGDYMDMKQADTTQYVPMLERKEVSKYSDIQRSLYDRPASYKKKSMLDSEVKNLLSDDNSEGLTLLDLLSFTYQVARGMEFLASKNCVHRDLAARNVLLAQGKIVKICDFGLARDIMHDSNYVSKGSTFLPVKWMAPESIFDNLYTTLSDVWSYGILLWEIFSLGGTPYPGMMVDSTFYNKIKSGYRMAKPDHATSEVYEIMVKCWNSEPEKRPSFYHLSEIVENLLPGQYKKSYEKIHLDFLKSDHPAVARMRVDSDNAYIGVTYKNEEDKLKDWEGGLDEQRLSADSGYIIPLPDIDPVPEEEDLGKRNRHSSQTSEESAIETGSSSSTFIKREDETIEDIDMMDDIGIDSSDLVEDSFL
SLK (human), sequence (Q9H2G2 whole entry, looked up): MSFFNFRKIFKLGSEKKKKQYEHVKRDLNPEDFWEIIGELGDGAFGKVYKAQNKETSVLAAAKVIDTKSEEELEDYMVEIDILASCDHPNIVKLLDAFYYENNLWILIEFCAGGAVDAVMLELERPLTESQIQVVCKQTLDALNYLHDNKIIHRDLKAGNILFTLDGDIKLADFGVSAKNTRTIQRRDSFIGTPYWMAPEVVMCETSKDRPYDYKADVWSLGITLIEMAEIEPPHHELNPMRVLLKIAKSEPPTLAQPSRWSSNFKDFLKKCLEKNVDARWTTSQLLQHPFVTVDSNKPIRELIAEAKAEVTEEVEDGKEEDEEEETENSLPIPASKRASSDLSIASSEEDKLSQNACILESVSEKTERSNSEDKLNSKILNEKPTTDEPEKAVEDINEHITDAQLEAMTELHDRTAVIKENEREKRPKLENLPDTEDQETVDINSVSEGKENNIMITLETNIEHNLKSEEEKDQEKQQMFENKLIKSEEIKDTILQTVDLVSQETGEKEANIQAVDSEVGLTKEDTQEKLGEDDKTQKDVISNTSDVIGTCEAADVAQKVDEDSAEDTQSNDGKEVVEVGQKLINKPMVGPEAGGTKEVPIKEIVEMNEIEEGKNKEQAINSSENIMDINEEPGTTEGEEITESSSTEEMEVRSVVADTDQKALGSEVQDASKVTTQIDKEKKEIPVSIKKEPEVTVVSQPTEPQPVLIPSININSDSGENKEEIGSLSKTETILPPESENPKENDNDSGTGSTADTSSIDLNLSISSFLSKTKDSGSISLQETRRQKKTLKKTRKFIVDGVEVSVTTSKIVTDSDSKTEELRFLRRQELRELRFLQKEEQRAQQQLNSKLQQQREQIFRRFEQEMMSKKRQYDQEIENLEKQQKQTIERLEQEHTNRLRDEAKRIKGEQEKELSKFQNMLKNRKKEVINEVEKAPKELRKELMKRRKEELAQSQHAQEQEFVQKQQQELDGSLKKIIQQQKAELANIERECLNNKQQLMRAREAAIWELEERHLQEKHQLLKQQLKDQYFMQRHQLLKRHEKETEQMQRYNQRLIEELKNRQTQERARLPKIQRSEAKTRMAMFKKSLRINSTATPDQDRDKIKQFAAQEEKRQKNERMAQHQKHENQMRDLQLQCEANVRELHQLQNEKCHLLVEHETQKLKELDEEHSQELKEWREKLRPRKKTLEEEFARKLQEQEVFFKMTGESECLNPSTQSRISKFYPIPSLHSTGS
PKN2 (human), sequence (Q16513 whole entry, looked up): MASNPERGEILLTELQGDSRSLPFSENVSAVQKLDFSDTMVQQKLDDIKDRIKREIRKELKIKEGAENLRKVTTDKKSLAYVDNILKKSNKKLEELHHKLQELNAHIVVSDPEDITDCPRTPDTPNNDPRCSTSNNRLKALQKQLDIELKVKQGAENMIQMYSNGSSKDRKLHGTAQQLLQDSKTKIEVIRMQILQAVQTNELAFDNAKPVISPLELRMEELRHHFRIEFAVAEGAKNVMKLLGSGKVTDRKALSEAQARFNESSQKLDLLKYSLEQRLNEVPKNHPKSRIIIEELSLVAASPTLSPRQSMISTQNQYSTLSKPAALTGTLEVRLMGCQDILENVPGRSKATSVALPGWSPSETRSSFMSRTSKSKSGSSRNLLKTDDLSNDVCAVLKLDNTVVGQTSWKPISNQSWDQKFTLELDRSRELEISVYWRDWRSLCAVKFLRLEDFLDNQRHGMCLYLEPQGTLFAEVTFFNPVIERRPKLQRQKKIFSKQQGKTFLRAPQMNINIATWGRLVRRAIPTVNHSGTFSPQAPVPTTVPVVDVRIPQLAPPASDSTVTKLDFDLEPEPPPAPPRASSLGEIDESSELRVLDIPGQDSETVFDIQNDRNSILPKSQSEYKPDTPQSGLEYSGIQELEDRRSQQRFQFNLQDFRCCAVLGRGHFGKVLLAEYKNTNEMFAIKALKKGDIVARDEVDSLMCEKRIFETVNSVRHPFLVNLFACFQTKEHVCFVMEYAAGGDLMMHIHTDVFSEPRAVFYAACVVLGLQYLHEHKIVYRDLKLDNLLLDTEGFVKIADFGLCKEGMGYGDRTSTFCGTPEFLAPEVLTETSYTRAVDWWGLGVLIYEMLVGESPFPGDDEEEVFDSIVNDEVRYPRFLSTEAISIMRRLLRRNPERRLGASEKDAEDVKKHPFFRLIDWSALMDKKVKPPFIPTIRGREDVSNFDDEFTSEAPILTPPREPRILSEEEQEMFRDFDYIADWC
PIM2 (human), sequence (Q9P1W9 whole entry, looked up): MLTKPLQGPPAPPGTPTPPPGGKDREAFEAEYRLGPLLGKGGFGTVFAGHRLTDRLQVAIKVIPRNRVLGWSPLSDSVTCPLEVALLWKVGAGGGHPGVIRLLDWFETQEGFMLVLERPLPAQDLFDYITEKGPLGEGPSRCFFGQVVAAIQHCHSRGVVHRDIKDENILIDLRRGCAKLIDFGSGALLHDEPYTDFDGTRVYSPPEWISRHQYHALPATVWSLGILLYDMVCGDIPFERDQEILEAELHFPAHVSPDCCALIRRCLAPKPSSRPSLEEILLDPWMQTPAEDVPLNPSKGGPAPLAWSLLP

## COc1ccc(OC)c2c(=S)c3ccccc3[nH]c12
[1]
  residual activity: 97.1%
[2]
  residual activity: 105%
[3]
  residual activity: 96.5%
[4]
  residual activity: 104%
[5]
  residual activity: 91.7%
[6]
  residual activity: 105%
[7]
  residual activity: 96.3%
[8]
  residual activity: 101% and 94.4%
[9]
  residual activity: 106%
[10]
  residual activity: 103%
[11]
  residual activity: 107%
[12]
  residual activity: 95.2%
[13]
  residual activity: 96.8%
[14]
  residual activity: 95.7%
[15]
  residual activity: 100%
[16]
  residual activity: 96%
[17]
  residual activity: 99.8%
[18]
  residual activity: 102%
[19]
  residual activity: 93.5%
[20]
  residual activity: 102%
[21]
  residual activity: 95.7%
[22]
  residual activity: 94.9%
[23]
  residual activity: 114%
[24]
  residual activity: 86.4%
[25]
  residual activity: 117%
[26]
  residual activity: 96.3%
[27]
  residual activity: 80.2%
[28]
  residual activity: 92.8%
[29]
  residual activity: 99.1%
[30]
  residual activity: 99%
[31]
  residual activity: 97.2%
[32]
  residual activity: 85.6%
[33]
  residual activity: 87.7%
[34]
  residual activity: 94.4%
[35]
  residual activity: 99.9%
[36]
  residual activity: 86.2%
[37]
  residual activity: 97.6%
[38]
  residual activity: 106% and 96.9%
[39]
  residual activity: 95.8%
[40]
  residual activity: 102%
[41]
  residual activity: 89.6%
[42]
  residual activity: 91%
